From patent US5530126A, “Process for the preparation of substituted 6-(pyrazol-3yl)-1,4-benzoxazin-3-ones” (Monsanto Company, priority 1994, dated 1996) come the findings set out here.

What all share (type): in vivo
Experiment [1] has as its system Barnyardgrass. The experiment can be described thus: Pre-emergence herbicide test. The settings on record: Echinochloa crus-galli, 11.21 kg/ha, read-out: % plant inhibition (Bygr). As to the method:
(§1) The tests for pre-emergence herbicide activity are conducted as follows:
(§2) Topsoil is placed in an aluminum pan and compacted to a depth of 0.95 to 1.27 cm from the top of the pan. On the top of the soil is placed a predetermined number of seeds of each of several monocotyledonous and dicotyledonous annual plant species and/or vegetative propagules of various perennial plant species. A known amount of the active ingredient dissolved or suspended in an organic solvent, e.g., acetone, or water as carrier is then applied directly to the seed bed, which is then covered with a layer of untreated topsoil to level fill the pan. After treatment, the pans are moved to a greenhouse bench where they are watered from below as needed to give adequate moisture for germination and growth.
(§3) Approximately 10-14 days (usually 11 days) after seeding and treating, the pans are observed and the results (% inhibition) are recorded.
(§4) Tables 7 and 7A below summarize the results of the pre-emergence herbicidal activity tests of compounds of this invention in weeds. The herbicidal rating shown in these tables is the percent inhibition of each plant species. The plant species usually regarded as weeds which are utilized in one set of tests, the data for which are shown in the tables, are identified by letter headings above the columns in accordance with the following legend: […]

Experiment [2] concerns Morningglory. The experiment can be described thus: Pre-emergence herbicide test. The settings on record: Ipomoea, 11.21 kg/ha, read-out: % plant inhibition (Mogl). The method, then:
as §1, §2, §3, §4

Experiment [3] concerns Seedling johnsongrass. The experiment can be described thus: Pre-emergence herbicide test. The settings on record: Sorghum halepense, 11.21 kg/ha, read-out: % plant inhibition (Sejg). The method, then: as §1, §2, §3, §4
For experiment [4], the system named is Yellow nutsedge. Put plainly: Pre-emergence herbicide test. The settings on record: Cyperus, 11.21 kg/ha, read-out: % plant inhibition (Yens). The method, then:
as §1, §2, §3, §4

Experiment [5] relates to Wild buckwheat. Put plainly: Pre-emergence herbicide test. The settings on record: Fallopia convolvulus, 11.21 kg/ha, read-out: % plant inhibition (Wibw). As to the method:
as §1, §2, §3, §4

Experiment [6] relates to Indian Mustard. The experiment can be described thus: Pre-emergence herbicide test. The following applies: Brassica juncea, 11.21 kg/ha, read-out: % plant inhibition (Inmu). As to the method: as §1, §2, §3, §4
In experiment [7] the test system is Annual bluegrass. The experiment can be described thus: Pre-emergence herbicide test. The settings on record: 11.21 kg/ha, read-out: % plant inhibition (Anbg). The method, then:
as §1, §2, §3, §4

In experiment [8] the test system is Cocklebur. Put plainly: Pre-emergence herbicide test. The settings on record: Xanthium strumarium, 11.21 kg/ha, read-out: % plant inhibition (Cobu). As to the method:
as §1, §2, §3, §4

In experiment [9] the test system is Downy Brome. The experiment can be described thus: Pre-emergence herbicide test. The following applies: Bromus tectorum, 11.21 kg/ha, read-out: % plant inhibition (Dobr). As to the method: as §1, §2, §3, §4
In experiment [10] the test system is Velvetleaf. The experiment can be described thus: Pre-emergence herbicide test. The settings on record: Abutilon theophrasti, 11.21 kg/ha, read-out: % plant inhibition (Vele). The method, then:
as §1, §2, §3, §4

Experiment [11] deals with Barnyardgrass. The experiment can be described thus: Post-emergence herbicide test. The following applies: Echinochloa crus-galli, 11.21 kg/ha, read-out: % plant inhibition (Bygr). An excerpt:
(§5) Topsoil is placed in aluminum pans having holes in the bottom and compacted to a depth of 0.95 to 1.27 cm from the top of the pan. A predetermined number of seeds of each of several dicotyledonous and monocotyledonous annual plant species and/or vegetative propagules for the perennial plant species are placed on the soil and pressed into the soil surface. The seeds and/or vegetative propagules are covered with soil and leveled. The pans are then placed on a bench in the greenhouse and watered from below as needed. After the plants reach the desired age (two to three weeks), each pan, is removed individually to a spraying chamber and sprayed by means of an atomizer, operating at a spray pressure of 170.3 kPa (10 psig) at the application rates noted. In the spray solution is an amount of an emulsifying agent mixture to give a spray solution or suspension which contains about 0.4% by volume of the emulsifier. The spray solution or suspension contains a sufficient amount of the candidate chemical in order to give application rates of the active ingredient corresponding to those shown in Tables 8 and 8A, while applying a total amount of solution or suspension equivalent to 1870 L/Ha (200 gallons/acre). The pans were returned to the greenhouse and watered as before and the injury to the plants as compared to the control is observed at approximately 10-14 days (usually 11 days) and in some instances observed again at 24-28 days (usually 25 days) after spraying. The post-emergent herbicidal activity shown in these tables is the percent inhibition of each plant species.

The subject of experiment [12] is Morningglory. Put plainly: Post-emergence herbicide test. The settings on record: Ipomoea, 11.21 kg/ha, read-out: % plant inhibition (Mogl).
Description: as §5

The subject of experiment [13] is Seedling johnsongrass. The experiment can be described thus: Post-emergence herbicide test. The settings on record: Sorghum halepense, 11.21 kg/ha, read-out: % plant inhibition (Sejg).
Description: as §5

Experiment [14] relates to Yellow nutsedge. The experiment can be described thus: Post-emergence herbicide test. The following applies: Cyperus, 11.21 kg/ha, read-out: % plant inhibition (Yens).
Description: as §5

Experiment [15] deals with Wild buckwheat. The experiment can be described thus: Post-emergence herbicide test. The settings on record: Fallopia convolvulus, 11.21 kg/ha, read-out: % plant inhibition (Wibw).
Description: as §5

Experiment [16] relates to Indian Mustard. The experiment can be described thus: Post-emergence herbicide test. The settings on record: Brassica juncea, 11.21 kg/ha, read-out: % plant inhibition (Inmu).
Description: as §5

The test system of experiment [17] is Annual bluegrass. The experiment can be described thus: Post-emergence herbicide test. The following applies: 11.21 kg/ha, read-out: % plant inhibition (Anbg).
Description: as §5

Experiment [18] concerns Cocklebur. Put plainly: Post-emergence herbicide test. The following applies: Xanthium strumarium, 11.21 kg/ha, read-out: % plant inhibition (Cobu).
Description: as §5

Experiment [19] relates to Downy Brome. Put plainly: Post-emergence herbicide test. The following applies: Bromus tectorum, 11.21 kg/ha, read-out: % plant inhibition (Dobr).
Description: as §5

The subject of experiment [20] is Velvetleaf. Put plainly: Post-emergence herbicide test. The following applies: Abutilon theophrasti, 11.21 kg/ha, read-out: % plant inhibition (Vele).
Description: as §5

In the case of `Cn1nc(C(F)F)c(Cl)c1-c1cc(F)ccc1F` [Compound 62], the inhibition at 11210 g/ha worked out at 20% in experiment [1]; 30% in experiment [2]; 30% in [3]; 0% in experiment [4]; 20% in [5]; 20% in [6]. Further, the inhibition at 11210 g/ha in [7] is 0%; in [8], 0%; in experiment [9] it was 0%; in experiment [10], 60%; in [11], 0%; in experiment [12], 0%. The inhibition at 11210 g/ha in [13], in experiment [14], in [15], in experiment [16], in [17] and in [18] was 0% in each case. The results for the inhibition at 11210 g/ha in experiment [19] and in experiment [20] were 0% and 10%, respectively.

As to `Cc1cc(-c2c(Cl)c(C(F)(F)F)nn2C)c(F)cc1Cl` [Compound 63], the inhibition at 11210 g/ha in [1] was 100%; in experiment [2], 100%; in experiment [3] it was 100%; in experiment [4], 0%; in experiment [5], 100%; in experiment [6], 100%. For the same compound, the inhibition at 11210 g/ha in experiment [7] stood at 100%; in [8] it was 60%; in experiment [9] it was 100%; in experiment [10], 100%; in experiment [11], 20%; in [12] it was 100%. In addition, the inhibition at 11210 g/ha is 70% in [13]; 0% in experiment [14]; 100% in experiment [15]; 40% in [16]; 20% in [17]; 0% in experiment [18]. Further, the inhibition at 11210 g/ha in experiment [19] is 20%; in [20], 100%.

As for `Cc1cc(-c2c(Cl)c(C(F)F)nn2C)c(F)cc1Cl` [Compound 64], the inhibition at 11210 g/ha amounted to 80% in [1]; 80% in experiment [2]; 80% in experiment [3]; 10% in experiment [4]; 100% in experiment [5]; 100% in experiment [6]. Moreover, the inhibition at 11210 g/ha in experiment [7] came out at 90%; in experiment [8], 10%; in experiment [9] it was 90%; in experiment [10], 100%; in [11], 30%; in [12], 60%. For the same compound, the inhibition at 11210 g/ha in experiment [13] is 20%; in [14], 0%; in [15] it was 80%; in [16], 20%; in experiment [17], 20%; in experiment [18] it was 20%. For the same compound, the inhibition at 11210 g/ha amounted to 0% in experiment [19] and 60% in [20].

On to `Cn1nc(C(F)(F)F)c(Cl)c1-c1ccc(Cl)cc1` [Compound 66], for which the inhibition at 11210 g/ha in experiment [1] is 10%; in experiment [2] it was 100%; in experiment [3] it was 90%; in experiment [4], 0%; in [5], 90%; in experiment [6], 50%. The inhibition at 11210 g/ha in experiment [7] came out at 50%; in [8], 20%; in experiment [9], 60%; in experiment [10], 90%; in experiment [11], 20%; in [12] it was 70%. Besides, the inhibition at 11210 g/ha was 80% in experiment [13]; 0% in experiment [14]; 100% in [15]; 30% in [16]; 0% in [17]; 0% in [18]. The inhibition at 11210 g/ha in experiment [19] stood at 30%; in experiment [20] it was 50%.

Regarding `Cn1nc(C(F)(F)Cl)c(Cl)c1-c1ccc(Cl)cc1` [Compound 67], the inhibition at 11210 g/ha in [1] came out at 0%; in experiment [2], 90%; in [3] it was 40%; in [4], 0%; in [5], 90%; in [6], 50%. The inhibition at 11210 g/ha in [7] is 40%; in experiment [8], 0%; in experiment [9] it was 40%; in experiment [10], 80%; in experiment [11], 40%; in experiment [12], 70%. In addition, the inhibition at 11210 g/ha in experiment [13] stood at 80%; in experiment [14], 20%; in experiment [15], 100%; in experiment [16], 40%; in experiment [17] it was 20%; in experiment [18], 20%. Besides, the inhibition at 11210 g/ha came to 40% in experiment [19] and 80% in experiment [20].

Take `Cn1nc(C(F)(F)F)c(Br)c1-c1cc(F)ccc1F` [Compound 68]: the inhibition at 11210 g/ha in experiment [1] came to 10%; in [2], 30%; in experiment [3], 10%; in experiment [4] it was 30%; in experiment [6], 0%; in experiment [7] it was 0%. Further, the inhibition at 11210 g/ha in experiment [8] turned out to be 0%; in experiment [9], 0%; in experiment [10], 40%; in experiment [11], 0%; in [12], 0%; in [13], 0%. For the same compound, the inhibition at 11210 g/ha in [14], in experiment [15], in experiment [16], in [17], in [18] and in experiment [19] was 0% throughout. Also, in experiment [20], the inhibition at 11210 g/ha was 0%.

In the case of `Cn1nc(C(F)(F)F)c(Cl)c1-c1cc(F)ccc1F` [Compound 69], the inhibition at 11210 g/ha in [1] amounted to 0%; in experiment [2], 30%; in experiment [3], 0%; in experiment [4], 0%; in [5] it was 0%; in experiment [6], 0%. Moreover, the inhibition at 11210 g/ha in experiment [7] was determined as 0%; in experiment [8], 0%; in [9], 0%; in experiment [10], 50%; in [11], 0%; in [12], 10%. For the same compound, the inhibition at 11210 g/ha in experiment [13], in experiment [14], in experiment [15], in experiment [16], in [17] and in experiment [18] was 0% each time. Also, the inhibition at 11210 g/ha is 0% in experiment [19] and 10% in experiment [20].
